Assay results from patent US8637671B2, “Indole derivatives as CRTH2 receptor antagonists” (Merck Canada Inc., priority 2008, dated 2014).

The compounds below were run against T1, hCRTH2 (Homo sapiens, UniProt Q9Y5Y4) (assay: Radioligand binding assay ([3H]PGD2 competition)).
T1 sequence (Q9Y5Y4 1-395): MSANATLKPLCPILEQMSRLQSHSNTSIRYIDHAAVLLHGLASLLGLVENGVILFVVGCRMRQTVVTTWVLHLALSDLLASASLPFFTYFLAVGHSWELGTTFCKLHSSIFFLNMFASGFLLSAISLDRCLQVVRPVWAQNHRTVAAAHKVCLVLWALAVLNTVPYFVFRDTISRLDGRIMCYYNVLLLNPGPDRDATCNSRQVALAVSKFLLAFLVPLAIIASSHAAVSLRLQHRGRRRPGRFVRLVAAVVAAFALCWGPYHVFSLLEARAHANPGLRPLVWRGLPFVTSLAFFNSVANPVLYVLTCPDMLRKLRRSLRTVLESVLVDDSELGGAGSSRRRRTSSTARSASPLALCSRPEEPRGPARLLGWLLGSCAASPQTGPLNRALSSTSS
Procedure: Radioligand binding assay. […] Competing ligands were diluted in dimethylsulfoxide (Me2SO) that was kept constant at 1% (v/v) of the final incubation volume. The reaction was initiated by the addition of 8-20 μg of membrane protein prepared from a HEK-hCRTH2 cell line. Total and non-specific binding were determined in the absence and the presence of 10 μM PGD2, respectively. Under these conditions, specific binding (total minus non-specific) of the radioligand to the receptor reached equilibrium within 50 min and was stable up to 180 min. The reaction was routinely conducted for 60 min at room temperature and terminated by rapid filtration through prewetted Unifilters GF/C (Packard), using a Tomtec MachIII semi-automated harvester (for HEK-hCRTH2). The filters were then washed with 4 ml of the same buffer and residual radioligand bound to the filter was determined by liquid scintillation counting following equilibration in 25 μl Ultima Gold F™ (Unifilter) (Packard).

Compared with `O=C(O)Cc1c2n(c3ccccc13)C[C@H](N(Cc1ccc(F)cc1)C(=O)Cc1ccc(F)cc1)CC2` [Example 3, ((7R)-7-{(4-fluorobenzyl)[(4-fluorophenyl)acetyl]amino}-6,7,8,9-tetrahydropyrido[1,2-a]indol-10-yl)acetic acid], `CN(C(=O)Cc1ccc(F)cc1Br)[C@@H]1CCc2c(CC(=O)O)c3ccccc3n2C1` [Example 34, {(7R)-7-[[(2-bromo-4-fluorophenyl)acetyl](methyl)amino]-6,7,8,9-tetrahydropyrido[1,2-a]indol-10-yl}acetic acid] is higher in Ki: at most 5 nM for the first, 50 to 100 nM for the second.

`CN(C(=O)C1(c2ccc(Cl)cc2)CCCC1)[C@@H]1CCc2c(CC(=O)O)c3ccccc3n2C1` [Example 20, {(7R)-7-[{[1-(4-chlorophenyl)cyclopentyl]carbonyl}(methyl)amino]-6,7,8,9-tetrahydropyrido[1,2-a]indol-10-yl}acetic acid] and `CN(C(=O)C1(c2ccc(F)cc2)CC1(C)C)[C@@H]1CCc2c(CC(=O)O)c3ccccc3n2C1` (stereo partly drawn) [Example 35, {(7R)-7-[{[1-(4-fluorophenyl)-2,2-dimethylcyclopropyl]carbonyl}(methyl)amino]-6,7,8,9-tetrahydropyrido[1,2-a]indol-10-yl}acetic acid] cannot be ordered by Ki: at most 5 nM for the first, at most 5 nM for the second.

`CN(C(=O)C(C)(C)Cc1ccccc1)[C@@H]1CCc2c(CC(=O)O)c3ccccc3n2C1` [Example 26, {(7R)-7-[(2,2-dimethyl-3-phenylpropanoyl)(methyl)amino]-6,7,8,9-tetrahydropyrido[1,2-a]indol-10-yl}acetic acid] and `CN(C(=O)CCc1ccccc1)[C@@H]1CCc2c(CC(=O)O)c3ccccc3n2C1` [Example 29, {(7R)-7-[methyl(3-phenylpropanoyl)amino]-6,7,8,9-tetrahydropyrido[1,2-a]indol-10-yl}acetic acid] fall in the same range of Ki: 5 to 10 nM for the first, 5 to 10 nM for the second.

First: CC(C(=O)N(C)[C@@H]1CCc2c(CC(=O)O)c3ccccc3n2C1)c1ccccc1 (stereo partly drawn) [Example 30, ((7R)-7-{methyl [2-phenylpropanoyl]amino}-6,7,8,9-tetrahydropyrido[1,2-a]indol-10-yl)acetic acid]
Second: COC(C(=O)N(C)[C@@H]1CCc2c(CC(=O)O)c3ccccc3n2C1)c1ccccc1 (stereo partly drawn) [Example 36, {(7R)-7-[[-2-methoxy-2-phenylacetyl](methyl)amino]-6,7,8,9-tetrahydropyrido[1,2-a]indol-10-yl}acetic acid]
The Ki of the first is lower: at most 5 nM for the first, 10 to 50 nM for the second.
